# Key:
# A549 [1] = test: Potentiation of etoposide-induced cell cycle arrest in human A549 cells assessed as accumulation at G1 phase at 10 uM in presence of etoposide after 48 hrs by flow cytometric analysis (reference value: 36%); type: functional
# A549 [2] = test: Potentiation of cisplatin-induced cell cycle arrest in human A549 cells assessed as accumulation at G1 phase at 2.5 uM in presence of cisplatin after 48 hrs by flow cytometric analysis (reference value: 14.4%); type: functional
# A549 [3] = test: Potentiation of cisplatin-induced cell cycle arrest in human A549 cells assessed as accumulation at S phase at 2.5 uM in presence of cisplatin after 48 hrs by flow cytometric analysis (Rvb =15.8%); type: functional
# A549 [4] = test: Induction of apoptosis in human A549 cells assessed as late apoptotic cells at 10 uM incubated for 48 hrs by AnnexinV-FITC/propidium iodide staining based flow cytometry (reference value: 4%); type: functional
# A549 [5] = test: Potentiation of cisplatin-induced cell cycle arrest in human A549 cells assessed as accumulation at G1 phase at 5 uM in presence of cisplatin after 48 hrs by flow cytometric analysis (reference value: 14.4%); type: functional
# A549 [6] = test: Decrease in cell cycle associated protein expression in human A549 cells assessed as fold change in CDK6 expression at 5 uM after 48 hrs by Western blot analysis (reference value: 1.05); type: functional
# A549 [7] = test: Induction of cell cycle arrest in human A549 cells assessed as increase in cell accumulation at G1 phase after 48 hrs by flow cytometric analysis; type: functional, cell-based; settings: dose 2.5-10 µM
structure (smiles),measurement,setting,value
CN(C)C(=O)NCCCN(C)C1=Nc2ccccc2C(CC(=O)NCc2ccc(F)cc2)N1c1ccc(C2CCCCC2)cc1 (configuration not stated),Activity,A549 [1],7.9%
same,Activity,A549 [2],19.2%
same,Activity,A549 [3],19.2%
same,Activity,A549 [4],4.3%
same,Activity,A549 [5],24.5%
same,fold change (FC),A549 [6],0.45
same,Activity,A549 [7],Dose-dependent effect
